{
  "source": "patent US20220267390A1",
  "about": "“MPS MODIFIED PEPTIDES AND USE THEREOF” (The Regents of the University of California, priority 2019, published 2022)",
  "test_system": "IPF fibroblast cells",
  "test": "cells",
  "format": "cell-based, human",
  "conditions": "72 h",
  "procedure": "FIG. 14: Comparison of MPS-12042 (SEQ ID NO: 45) versus know tyrosine kinase inhibitor (TKLs) on the treatment of IPF fibroblast cells. Both normal and IPF lung fibroblast cells were treated with various drugs. After 72 hours, cells were subjected to MTT assays and IC50 for each drug was determined.\nHuman primary fibroblast cells were obtained from airway tissues provided from the UC Davis Medical Hospital (Sacramento, Calif.) with consent. The protocol for human tissue procurement and usage were periodically reviewed and approved by the University Human Subject Research Review Committee. Primary fibroblast cell lines, IPF-1 and IPF-2 cells, were established from IPF patients. Cells were obtained from lung biopsies and the diagnosis of IPF was supported by patient history, physical examination, pulmonary function tests, and typical high-resolution chest computed tomography findings of IPF. […] All patients fulfilled the criteria for the diagnosis of IPF as established by the American Thoracic Society and European Respiratory Society. Non-fibrotic primary control adult human lung fibroblast lines, Normal-1 and Normal-2 cells were used. These lines were established from normal lung tissue or histologically normal lung tissue adjacent to carcinoid tumor. The IPF cell line, LL97A, was purchased from the American Type Culture Collection (ATCC) (Manassas, Va.). Lung fibroblast lines were cultured in high-glucose DMEM or RPMI-1640 medium with 10% fetal bovine serum and 1% penicillin-streptomycin at 37° C. in a humidified atmosphere of 5% CO2. Fibroblasts were used between passages 4 and 8. Cells were characterized as fibroblasts as described^26.\nCells were seeded onto 96-well plates at a density of 5-10×10^3 cells per well and cultured for the indicated treatment. Cell proliferation was evaluated using a MTS assay kit (Promega, Madison, Wis.). Twenty microliters of the combined MTS/PMS solution was added into each well, incubated for 3 hours at 37° C., and the absorbance was measured at 490 nm by using an ELISA reader. For Trypan blue test, cells were plated on 12-well plates and treated with the indicated chemotherapeutic agents. After 72 hours, both attached and detached cells were collected and then stained with 0.2% trypan blue (0.1% final concentration), and the number of trypan blue-positive and -negative cells was counted using a haemocytometer under low-power microscopy. For colony-forming assays, 200 cells were seeded in each well of six-well plates. IPF-1 or IPF-2 primary cells were treated with peptides at the indicated concentrations for 10 days. Colonies were stained using 0.001% crystal violet and the number of colonies with a diameter greater than 0.5 mm was counted under an inverted microscope.",
  "note": "Where no end group is shown, it is not given here.",
  "data": [
    {"sequence": "KKKKKRFSFKKSFKLSGFSFKKNKK [MPS peptide]", "values": [
      {"measurement": "IC50", "value": "125 to 178", "unit": "µM"}
    ]}
  ]
}
